Assay results published in the RepoRT retention time repository (doi:10.1016/j.jhazmat.2019.121712).

Assay: Thermo Scientific Acclaim RSLC 120 C18, 100 × 2.1 mm, 2.2 µm, 30 °C; A: 90% water + 10% methanol + 0.01% formic acid + 5 mM ammonium formate; B: methanol + 0.01% formic acid + 5 mM ammonium formate; gradient (min/%B) 0.1/1 3/39 14/99.9 16/99.9
Conditions: stereoisomer not certain

Structure (SMILES)	LC retention time [min]
CCOP(=S)(Oc1ccc(C#N)cc1)c1ccccc1 (stereo not drawn)	10.9
Nc1ccc(O)c(C(=O)O)c1	1.63
NCCc1cnc[nH]1	1.58
COP(=S)(OC)Oc1ccc(S(N)(=O)=O)cc1	6.19
CCC(=O)OC(OP(=O)(CCCCc1ccccc1)CC(=O)N1CC(C2CCCCC2)CC1C(=O)O)C(C)C (stereo not drawn)	12.4
CNCC1CCCCC1(O)c1cccc(O)c1 (stereo not drawn)	4.28
CC(C)C(O)(C(=O)OCC1=CC[N+]2([O-])CCC(O)C12)C(C)O (stereo not drawn)	3.94
CCCCCn1cc(C(=O)c2ccc(OC)c3ccccc23)c2ccccc21	12.7
O=C1c2ccccc2C(=O)C1C(=O)C(c1ccccc1)c1ccccc1	8.6
N#CCCCCn1cc(C(=O)c2cccc3ccccc23)c2ccccc21	9.69
O=C(Nc1ccccc1)Nc1cnns1	7.17
COc1cc(CC(C)N)c(OC)cc1C (stereo not drawn)	5.83
CN1C(=O)CC(C)(c2ccccc2)C1=O (stereo not drawn)	6.71
OC(CCN1CCCCC1)(c1ccccc1)C1CCCCC1 (stereo not drawn)	7.86
N=C(N)c1ccccc1	2.63
CCCC(C(=O)c1ccc(C)cc1)N1CCCC1 (stereo not drawn)	6.03
CCN(CC)CCOCCOC(=O)C1(c2ccccc2)CCCC1	7.87
Cc1ccc(NC(=O)NC(C)(C)c2ccccc2)cc1	9.68
CC12C=CC(=O)C=C1CCC1C2C(O)CC2(C)C1CCC2(O)C(=O)CO (stereo not drawn)	7.84
N#Cc1ccc2c(c1)N(CCCN1CCC(O)CC1)c1ccccc1S2	7.45
CCC1OC(=O)C(C)C(OC2CC(C)(OC)C(O)C(C)O2)C(C)C(OC2OC(C)CC(NC)C2O)C(C)(OC)CC(C)C(=O)C(C)C(O)C1(C)O (stereo not drawn)	9.16
CN(C)C(=O)C(c1ccccc1)c1ccccc1	8.57

Structure (SMILES)	LC retention time [min]
COP(=S)(OC)Oc1ccc(S(C)(=O)=O)c(C)c1	7.57
S=c1[nH]c2ccccc2s1	6.89
NC1Cc2cc3c(cc2C1)OCO3	3.81
CON=C(C(=O)NC1C(=O)N2C(C(=O)[O-])=C(C[n+]3cccc4c3CCCC4)CSC12)c1csc(N)n1 (stereo not drawn)	3.76
Nc1ncn[nH]1	1.44
CC(=O)Nc1c(C)n(C)n(-c2ccccc2)c1=O	3.94
CC(C)c1nc(CN(C)C(=O)NC(C(=O)NC(Cc2ccccc2)CC(O)C(Cc2ccccc2)NC(=O)OCc2cncs2)C(C)C)cs1 (stereo not drawn)	11.1
COP(=S)(OC)SCN1C(=O)c2ccccc2C1=O	8.94
CN(CCO)CC(O)Cn1cnc2c1c(=O)n(C)c(=O)n2C (stereo not drawn)	2.99
c1ccc2[nH]c(-c3cscn3)nc2c1	6.15
C#CCOS(=O)OC1CCCCC1Oc1ccc(C(C)(C)C)cc1 (stereo not drawn)	12.8
CC=CCC1=C(C)C(OC(=O)C2C(C=C(C)C(=O)OC)C2(C)C)CC1=O (stereo not drawn)	11.6
COC(=O)C1=C(C)NC(C)=C(C(=O)OCC(C)C)C1c1ccccc1[N+](=O)[O-] (stereo not drawn)	10.6
CC(C)(N)Cc1ccccc1	4.64
CNC(=O)Oc1cccc2c1OC(C)(C)C2O (stereo not drawn)	5.09
CC12CCC(O)CC1CCC1C2C(=O)CC2(C)C1CCC2(O)C(=O)CO (stereo not drawn)	9.21
CCC12CCCN3CCc4c(n(c5ccccc45)C(O)(C(=O)OC)C1)C32 (stereo not drawn)	5.04
CCNC1(c2cccc(OC)c2)CCCCC1=O (stereo not drawn)	4.93
OCCOCCN1CCN(C2=Nc3ccccc3Sc3ccccc32)CC1	7.26
COC(=O)C(Cc1ccccc1)NC(=O)C(CC(=O)O)NCCC(C)(C)C (stereo not drawn)	8.83
COc1ccc(C(O)(c2cncnc2)C2CC2)cc1 (stereo not drawn)	7.15
CN1CCCCC(n2cc(C(=O)c3cccc4ccccc34)c3ccccc32)C1 (stereo not drawn)	8.61

Structure (SMILES)	LC retention time [min]
CCCCOc1cc(C(=O)OCCN(CC)CC)ccc1N	5.94
CC(C)(C)NCC(O)c1cc(O)cc(O)c1 (stereo not drawn)	3.11
CNCCCN1c2ccccc2CCc2ccccc21	8.08
CON=C(C(=O)NC1C(=O)N2C(C(=O)O)=C(CSC(=O)c3ccco3)CSC12)c1csc(N)n1 (stereo not drawn)	5.44
CCCc1nn(C)c2c(=O)[nH]c(-c3cc(C(=O)CN4CCN(CC)C(=O)C4)ccc3OCC)nc12	9.09
CSc1ccc(C(=O)c2[nH]c(=O)[nH]c2C)cc1	6.67
CC(CCc1ccccc1)NCC(O)c1ccc(O)c(C(N)=O)c1 (stereo not drawn)	5.74
CC=C(C)C(=O)OC1CC(OC(C)=O)C2(C(=O)OC)COC3C2C12COC(O)(C(=O)OC)C2C(C)(C12OC1(C)C1CC2OC2OC=CC21O)C3O (stereo not drawn)	7.56
CC1(C)SC2C(NC(=O)C(N)c3ccccc3)C(=O)N2C1C(=O)O (stereo not drawn)	4.21
CC(C)=CC1C(C(=O)OCN2C(=O)C3=C(CCCC3)C2=O)C1(C)C (stereo not drawn)	12.2
CN(C)CCc1c[nH]c2cccc(O)c12	3.29
CC(C)NC(=O)c1ccccc1O	7.14
NC(Cc1cnc[nH]1)C(=O)O (stereo not drawn)	1.23
COc1cccc(C(=O)NN(C(=O)c2cc(C)cc(C)c2)C(C)(C)C)c1C	9.56
NCC(O)c1ccccc1 (stereo not drawn)	2.84
CNC(=O)Oc1cc(C)c(C)c(C)c1	8.1
CN(C(=O)COc1nc2ccccc2s1)c1ccccc1	9.83
CC(N)Cc1ccccc1 (stereo not drawn)	4.16
CC1CCC2N(C1)CC1C3CC4C(CC(O)C5CC(O)CCC54C)C3CCC1C2(C)O (stereo not drawn)	6.44
CCN(CC)CCCOC(=O)C1(c2ccccc2)CC2CCC1C2 (stereo not drawn)	8.54
CN1CCC23c4c5ccc(O)c4OC2C(=O)CCC3(O)C1C5 (stereo not drawn)	2.75
CCCCCn1nc(C(=O)NC(C)(C)c2ccccc2)c2ccccc21	12.5

Structure (SMILES)	LC retention time [min]
CC(CCN1CCOCC1)OC(=O)C1(c2ccccc2)CCOCC1 (stereo not drawn)	6.12
CC(C)(C)NCC(O)COc1ccc(NC(=O)NC2CCCCC2)cc1 (stereo not drawn)	6.58
CC(C)(C)NCC(O)c1ccc(O)c(NC(N)=O)c1 (stereo not drawn)	2.89
CCS(=O)(=O)Cc1ccccc1OC(=O)NC	4.63
CN1C2CCCC1CC(NC(=O)c1nn(C)c3ccccc13)C2 (stereo not drawn)	4.99
CNC(=O)Oc1cc(C)cc(C)c1	7.78
CCNC(C)Cc1ccccc1 (stereo not drawn)	4.4
Cc1ccc(N=CN(C)C=Nc2ccc(C)cc2C)c(C)c1	13.3
C[N+](C)([O-])CCC(c1ccccc1)c1ccccn1 (stereo not drawn)	5.39
Cc1ccc(C(C)NC(=O)C(NC(=O)OC(C)C)C(C)C)cc1 (stereo not drawn)	9.82
CN(CCO)c1nc2c(c(=O)n(C)c(=O)n2C)n1C	4.94
OCCOCCN1CCN(C2=Nc3ccc(O)cc3Sc3ccccc32)CC1	4.99
CC(C)(C)c1ccc(CCOc2ncnc3ccccc23)cc1	13.7
CCNc1nc(NCC)nc(SC)n1	8.14
CSc1ccc2c(c1)N(CCC1CCCCN1C)c1ccccc1S2=O (stereo not drawn)	6.64
CSc1ccc2c(c1)N(CCC1CCCCN1C)c1ccccc1S2 (stereo not drawn)	9.34
COc1ccc(C2Sc3ccccc3N(CCN(C)C)C(=O)C2OC(C)=O)cc1 (stereo not drawn)	7.18
NNC(N)=O	1.33
CC1(C)CC1C(=O)NC(=CCCCCSCC(N)C(=O)O)C(=O)O (stereo not drawn)	4.88
CCOc1cc(CC(=O)NC(CC(C)C)c2ccccc2N2CCCCC2)ccc1C(=O)O (stereo not drawn)	11.9
CC(O)C1C(=O)N2C(C(=O)O)=C(SC3CNC(C(=O)N(C)C)C3)C(C)C12 (stereo not drawn)	10.6
CNCC(O)c1cccc(NS(C)(=O)=O)c1 (stereo not drawn)	2.54

Structure (SMILES)	LC retention time [min]
COP(=S)(OC)Oc1ccc([N+](=O)[O-])c(C)c1	9.92
CC(Cc1ccc(O)cc1)NCC(O)c1cc(O)cc(O)c1 (stereo not drawn)	3.61
CNC1C(C)OC(OC2C(C)OC(OC3C(C)=CCC4CC(CC5(C=CC(C)C(C(C)C)O5)O4)OC(=O)C4C=C(C)C(O)C5OCC(=CC=CC3C)C45O)CC2OC)CC1OC (stereo not drawn)	12
O=C(c1cccc2ccccc12)c1cn(CCCCCO)c2ccccc12	10
CC(=O)N=c1sc(S(N)(=O)=O)nn1C	4.28
COc1cc(C(=O)OCCCN(C)CCN(C)CCCOC(=O)c2cc(OC)c(OC)c(OC)c2)cc(OC)c1OC	7.54
CCC1C2CC3C4N(C)c5ccccc5C45CC(C2C5O)N3C1O (stereo not drawn)	5.19
CCCc1nn(C)c2c(=S)nc(-c3cc(S(=O)(=O)N4CC(C)NC(C)C4)ccc3OCC)[nH]c12 (stereo not drawn)	9.91
CCCc1nc(C)c2c(=O)[nH]c(-c3cc(S(=O)(=O)N4CCN(CC)CC4)ccc3OCC)nn12	8.11
CCS(=O)Cc1ccccc1OC(=O)NC (stereo not drawn)	4.7
CCN1CCCC1CNC(=O)c1cc(S(=O)(=O)CC)c(N)cc1OC (stereo not drawn)	3.88
CC(C)C(N)C(=O)OCC(CO)OCn1cnc2c(=O)[nH]c(N)nc21 (stereo not drawn)	2.71
Cc1ccc2n[nH]nc2c1	5.83
CCOP(=S)(OCC)Oc1ccc(S(C)(=O)=O)cc1	8.48
O=C(O)CCCCn1cc(C(=O)c2cccc3ccccc23)c2ccccc21	9.71
CCN(CC)C(=O)c1cccnc1	4.64
CC(=O)Nc1ccc(OC(=O)c2ccccc2OC(C)=O)cc1	7.41
CCOC(=O)C(CCc1ccccc1)NC(C)C(=O)N1CCCC1C(=O)O (stereo not drawn)	6.83
CCCCC1(COC(=O)CCC(=O)O)C(=O)N(c2ccccc2)N(c2ccccc2)C1=O	9.61
CCN(CC)CCOC(=O)C1(C2CCCCC2)CCCCC1	9.99
